For data set [1], the system named is bradykinin. The data set is described as follows: Antipruritic effect test (therapeutical test) of chelated zinc compounds other than zinc picolinate, bradykinin. Conditions: 1% (by weight), 0.1 ml applied 5 minutes after bradykinin 50 µg/0.5 ml intradermal; average score compared with Vehicle control group; 85% or less judged effective. It counts as in vivo, guinea pigs. Here is the method: Healthy male guinea pigs (weighing 450 - 600 g) depilated at the right abdominal side part by electrical clippers on the previous day were divided into three groups of 6. At the right abdominal side part was intradermally administered 50 µg/0.5 ml of bradykinin, and 5 minutes later, one group was externally applied at the site where bradykinin had been applied with only the vehicle for external application (Vehicle control), and other groups with each 1% (by weight) concentration of samples in each 0.1 ml amount, and the average value of the scores of antipruritic activity by pruriginous behaviors was examined by comparison with the Vehicle control group.
The antipruritic effect was judged to be effective for an average value of the scores of 85% or less.

For data set [2], the system named is histamine pruriogeneic animal. The data set is described as follows: Antipruritic effect test of histamine pruriogeneic animal (therapeutical test). It counts as in vivo, Hartley-strain male guinea pigs. The following applies: Table 10; 3 wt.%, 0.1 ml applied five minutes after histamine 50 µg/0.05 ml intradermal; vehicle control 16.6 ± 0.5.
Data set [3] concerns pruritus of bradykinin. The data set is described as follows: Antipruritic effect test (therapeutical test), bradykinin pruriogeneic animal, sample applied 5 minutes after bradykinin. It counts as in vivo, Hartley-strain male guinea pigs. Conditions: 1 wt.%. How it is done: (§1) Using healthy Hartley-strain male guinea pigs, bradykinin, which is a pruriogeneic substance, was intradermally introduced at the side abdominal part to obtain a pruriogeneic animal.
(§2) The pruriginous behaviors were rated according to the standards shown below, and represented as pruriginous activity.
(§3) For four or six guinea pigs of one group, the above-mentioned behavior observation was conducted by three or more members at the same time for 20 minutes, and the pruriginous activity (score) determined as an average value ± standard deviation of the evaluation scores, and the antripruritic effect judged by the significance difference test with the Vehicle control group according to the Student's T test.
Healthy guinea pigs (weighing 450 - 600 g) depilated at the right abdominal side part on the previous day were divided into three groups of 6.
Using the same test methods as described above, the zinc picolinate preparation and the crotamiton preparation each of 1% concentration were examined by comparison with the Vehicle control group.

Data set [4] relates to kallikrein pruriogeneic animal. The data set is described as follows: Antipruritic test of kallikrein pruriogeneic animal (therapeutical test). Format: in vivo, Hartley-strain male guinea pigs. The text has this: There is already known a pruriogeneic substance other than bradyokinin which cannot be inhibited by antihistamines; namely, kallikrein (International Journal of Dermatology, Vol. 14, pages 465 - 484, 1975).
Using healthy Hartley-strain male guinea pigs, bradykinin, which is a pruriogeneic substance, was intradermally administered at the side abdominal part to obtain a pruriogeneic animal.
The pruriginous behaviors were rated according to the standards shown below and represented as pruriginous activity.
For six guinea pigs of one group, the above-mentioned behavior observation was conducted by three or more members at the same time for 20 minutes, and the pruriginous activity (score) determined as an average value ± standard deviation of the evaluation scores, and the antripruritic effect judged by the significance difference test with the Vehicle control group according to the Student's T test.
Healthy male guinea pigs (weighing 450 - 600 g) depilated at the right abdominal side part by electrical clippers on the previous day were divided into three groups of six.
Using the same test method as in 4-1, animals were divided into four groups of 6.

Data set [5] concerns rats (Sprague Dawley strain). The data set is described as follows: Acute toxicity tests. Format: in vivo. Here is the method: First, the toxicity of the antipruritic agent according to the present invention was examined. Acute toxicity tests were conducted by using healthy 5 to 6 weeks old male and female rats (Sprague Dawley strain). An oral administration was made by suspending zinc picolinate in 20% carboxymethyl cellulose, and a subcutaneous administration was made by suspending zinc picolinate in 10% carboxylmethyl cellulose.

Data set [6] concerns skin (Futat skin and Abraded skin). The following applies: rabbit, in vivo.
Protocol: The test was conducted according to the method of the FDA method (U.S. Food and Drug Administration method).
Eight Japanese White species rabbits weighing 2.3 to 3 kg were depilated at the back by electrical clippers and divided into two groups of four, one group being as such (Futat skin) and the other group having an abrasion made at the testing side (Adraded skin), and were fixed on a fixer. An amount of 0.3 ml of the test substance was applied to the skin by a sticking plaster for an animal test having a lint cloth 25 mm in diameter. After 24 hours, the sticking plaster was removed, and the reaction of the skin evaluated in terms of the degrees of erythema and edema, according to the following standards. The judgement was again performed 72 hours later.
The skin primary irritation evaluation score is shown by an average value obtained by adding average values of a judgement of the formation of erythema and edema after 24 and 72 hours for four rabbits with Futat skin and Abraded skin, and dividing the value by the animal test sample number of 4.
The standards of the evaluation score (average value) of the skin safety is as shown below. Evaluation score less than 2: slight irritation or substantially no irritation Evaluation score of 2 - 5: moderate irritation Evaluation score of 5 or more: strong irritation The results are shown in Table-2.
Data set [7] has as its system pruritus of bradykinin. The data set is described as follows: Antipruritic effect test, bradykinin pruriogeneic animal, sample applied immediately before bradykinin. It counts as in vivo, Hartley-strain male guinea pigs. The following applies: bradykinin 10 µg/0.1 ml. How it is done:
as §1, §2, §3
Immediately thereafter, bradykinin 10 µg/0.1 ml was subcutaneously administered at the same applied site, and the score (average value ± standard deviation) of pruriginous activity by pruriginous behaviors was examined by comparison.
As described above in (1), healthy male guinea pigs (weighing 450 - 600 g) depilated at the right abdominal side part by electrical clippers on the previous day were divided into four groups each of four, of which one group was externally applied at the right abdominal side part with only the vehicle for external application (Vehicle control), and other groups with respective preparations of a mixture group of 1.24% by weight of picolinic acid and 2.88% by weight of zinc sulfate corresponding respectively to the picolinic acid amount and the zinc amount of 3% by weight of zinc picolinate, a 2.88% by weight zinc sulfate single substance group and a 3.17% by weight of zinc pyrithione group corresponding to the zinc amount in each 0.1 ml amount. Immediately thereafter, bradykinin 10 µg/0.1 ml was subcutaneously administered at the same applied site, and the score of pruriginous activity by pruriginous behaviors was examined by comparison.

Data set [8] deals with T1, plasmin (Homo sapiens, UniProt P00747).
T1 construct: purchased Sigma
The data set is described as follows: Antiplasmin activity, fibrin plate method. Format: biochemical. Conditions: 50% inhibition of fibrinolytic activity by plasmin; pre-incubation 37°C 30 minutes. Here is the method:
The antiplasmin active action was determined as the sample amount necessary for a 50% inhibition (IC₅₀: mg/ml) from the inhibition ratio of the fibrinolytic activity by plasmin, by using the fibrin plate method.
A fibrin plate was prepared according to the method of Warren et al. (Hemostasis Vol. 4, page 110, 1975) by dissolving under heating 100 mg of agarose in 5 ml of a 0.01 M phosphate buffer supplemented with 0.15 M sodium chloride, followed by cooling to 50°C. In this solution was dissolved 10 mg of a plasminogen free fibrinogen (Daiichi Kagaku Yakuhin), and after 0.1 ml of a thrombin solution (100 units/ml, Mochida Seiyaku) was dropwise added to the solution, the mixture was immediately poured into a laboratory dish (diameter 9 cm, Terumo) and left to cool, to be thereby solidified. A plasminogen free fibrin plate was prepared. By forming a well 6 mm in diameter at the center of the dish.

The mark [9] stands for this setting: Table 7, same test methods as above (therapeutical test, bradykinin), vehicle control 35.4 ± 3.1.
Where [10] appears, read: Table 9, 3 wt.%, 0.1 ml applied after kallikrein intradermal, vehicle control 18.68 ± 2.06.
Setting [11] is: Table 5, 0.1 ml applied 5 minutes after bradykinin 50 µg/0.05 ml intradermal, vehicle control 30.1 ± 3.6.

Structures can show the parent of a compound that is named as a salt. A value given as a limit tells only on which side of the number the result lay.

T1 sequence (P00747 581-810 limits assumed, species assumed): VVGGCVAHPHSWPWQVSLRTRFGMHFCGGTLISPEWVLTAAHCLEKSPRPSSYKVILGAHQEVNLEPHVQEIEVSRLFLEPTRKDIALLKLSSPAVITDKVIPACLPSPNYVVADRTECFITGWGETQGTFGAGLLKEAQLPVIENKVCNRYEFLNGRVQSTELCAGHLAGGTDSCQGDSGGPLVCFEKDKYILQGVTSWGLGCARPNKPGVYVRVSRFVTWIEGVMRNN
T1 sequence (P00747 97-580 limits assumed, species assumed): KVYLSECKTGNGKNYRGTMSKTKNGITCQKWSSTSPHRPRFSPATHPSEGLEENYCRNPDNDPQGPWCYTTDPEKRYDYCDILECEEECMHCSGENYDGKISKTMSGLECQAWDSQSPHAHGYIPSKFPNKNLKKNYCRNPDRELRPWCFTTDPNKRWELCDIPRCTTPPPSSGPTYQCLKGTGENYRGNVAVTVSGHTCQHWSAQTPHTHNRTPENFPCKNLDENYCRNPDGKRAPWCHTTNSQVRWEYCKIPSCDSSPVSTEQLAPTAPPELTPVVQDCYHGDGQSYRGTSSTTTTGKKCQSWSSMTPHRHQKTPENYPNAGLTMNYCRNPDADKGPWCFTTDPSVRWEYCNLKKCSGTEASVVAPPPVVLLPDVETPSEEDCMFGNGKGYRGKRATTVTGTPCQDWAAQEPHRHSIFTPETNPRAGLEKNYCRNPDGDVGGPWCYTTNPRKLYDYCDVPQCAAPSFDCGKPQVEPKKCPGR

For the compound “zinc 4-t-butylpicolinate [Compound No. I]”, in [1], the “Pruritic activity score (%)” value came to 63.3%.
Consider “zinc 3-methylpicolinate [Compound No. B]”, for which the “Pruritic activity score (%)” value in data set [1] was determined as 65.9%.
Still for that read-out and setting: for “zinc 4-carboxypicolinate [Compound No. S]” the value was 66.3%.
Turning to `CC=CC(=O)N(CC)c1ccccc1C` [Crotamiton, reference compound], the “Pruritic activity/20 min.” value in data set [2] worked out at 18.9 ± 2.5; in [3] (setting [9]), 29.3 ± 3.3; in [4] (setting [10]) it was 15.15 ± 1.92.
For the compound “zinc 6-undecylpicolinate [Compound No. O]”, in [1], the “Pruritic activity score (%)” value stood at 65.0%.
As to “zinc 4-undecylpicolinate [Compound No. N]”, in data set [1], the “Pruritic activity score (%)” value is 64.4%.
On the same count and under the same terms, for “zinc 6-hexyloxypicolinate [Compound No. K]” the value was 74.8%; for zinc 4-nitropicolinate [Compound No. Q], 58.3%.
Same read-out and setting: the value for “zinc 5-butoxypicolinate [Compound No. G]” was 66.2%.
On to zinc picolinate, for which the “amount soluble in water as such” value is listed as not above 0.5 % by weight. This compound also gave an LD₅₀ value in data set [5] (Female rats, Oral) of more than 2000 mg/kg. The Lethality in data set [5] (Female rats, Oral, dose 200 mg/kg, suspended in 20% carboxymethyl cellulose) was 0/5. For the same compound, the Lethality in data set [5] (Female rats, Subcutaneous, dose 70 mg/kg) is 0/5. Also, the Lethality in data set [5] (Female rats, Subcutaneous, dose 91 mg/kg) is listed as 0/5. Moreover, the Lethality in data set [5] (Female rats, Subcutaneous, dose 118 mg/kg) is reported as 2/5. Moreover, the Lethality in data set [5] (Female rats, Subcutaneous, dose 154 mg/kg) is 5/5. The Lethality in [5] (Female rats, Subcutaneous, dose 200 mg/kg) was 5/5. In data set [5] (Female rats, Subcutaneous, suspended in 10% carboxylmethyl cellulose), this compound returned an LD₅₀ value of 122 mg/kg. The same compound gave an LD₅₀ value in [5] (Male rats, Oral) of more than 2000 mg/kg. Moreover, the Lethality in [5] (Male rats, Oral, dose 200 mg/kg, suspended in 20% carboxymethyl cellulose) is given as 0/5. Further, the Lethality in data set [5] (Male rats, Subcutaneous, dose 70 mg/kg) is recorded as 0/5. Besides, the Lethality in data set [5] (Male rats, Subcutaneous, dose 91 mg/kg) is reported as 1/5. Further, in data set [5] (Male rats, Subcutaneous, dose 118 mg/kg), the Lethality is recorded as 2/5. Besides, in data set [5] (Male rats, Subcutaneous, dose 154 mg/kg), the Lethality is given as 4/5. For the same compound, the Lethality in [5] (Male rats, Subcutaneous, dose 200 mg/kg) is listed as 5/5. The compound also displayed an LD₅₀ value in data set [5] (Male rats, Subcutaneous, suspended in 10% carboxylmethyl cellulose) of 121 mg/kg. The “Skin primary irritation evaluation score” value in data set [6] was 1.6. Besides, in data set [2], the “Pruritic activity/20 min.” value is 7.4 ± 0.5. The “Pruritic activity/20 min.” value in data set [7] (Table 4, 0.01 wt.%, 0.1 ml external, mean ± SD, vehicle control 45.7 ± 5.7) is on record as 17.5 ± 2.4. Further, in data set [7] (Table 4, 10 wt.%, 0.1 ml external, mean ± SD, vehicle control 45.7 ± 5.7), the “Pruritic activity/20 min.” value was 15.5 ± 1.6. Further, in data set [7] (Table 6, 3 wt.%, 0.1 ml, vehicle control 40.1 ± 6.7), the “Pruritic activity/20 min.” value is given as 17.7 ± 1.4^*1. The “Pruritic activity/20 min.” value in data set [3] (setting [11]) is 14.9 ± 0.3. Further, the “Pruritic activity/20 min.” value in data set [3] (setting [9]) came out at 12.7 ± 0.7. Moreover, the “Pruritic activity/20 min.” value in [4] (Table 8, 0.01 wt.%, 0.1 ml applied five minutes after kallikrein 25 units/0.05 ml intradermal, vehicle control 19.95 ± 2.41) came to 12.95 ± 0.95. Moreover, in [4] (Table 8, 10 wt.%, 0.1 ml applied five minutes after kallikrein 25 units/0.05 ml intradermal, vehicle control 19.95 ± 2.41), the “Pruritic activity/20 min.” value is 12.85 ± 0.70. In data set [4] (setting [10]), the “Pruritic activity/20 min.” value stood at 12.95 ± 0.95. The compound also came in with an IC₅₀ in data set [8] of 2.3 mg/mL.
Consider “zinc 5-(2-ethylhexyloxy)picolinate [Compound No. L]”, for which, in data set [1], the “Pruritic activity score (%)” value was found to be 60.3%.
On the same count and under the same terms, the value for “zinc 4-chloropicolinate [Compound No. R]” was 18.5%; that for zinc 3-hexyloxypicolinate [J] was 75.7%.
For the compound “zinc 5-propoxypicolinate [Compound No. E]”, in data set [1], the “Pruritic activity score (%)” value came to 81.5%.
Consider zinc sulfate [reference compound], for which the “Pruritic activity/20 min.” value in data set [7] (Table 6, 2.88 wt.%, 0.1 ml, vehicle control 40.1 ± 6.7) is 33.7 ± 5.2.
As for “zinc picolinate N-oxide [Compound No. P]”, the “Pruritic activity score (%)” value in [1] is reported as 85.0%.
The same measure, in the same setting: the value for “zinc 3-undecylpicolinate [Compound No. M]” was 70.1%; that for “zinc 6-butoxypicolinate [Compound No. H]” was 71.8%.
The same measure, in the same setting: the value for zinc 3-hydroxypicolinate was 58.0%.
Turning to `CN(C)CCOC(c1ccccc1)c1ccccc1` [Diphenhydramine hydrochloride, reference compound], in data set [8], the IC₅₀ result is reported as “No action at 10 mg/ml”.
In the case of `CN(C)CCOC(c1ccccc1)c1ccccc1` [Diphenhydramine, reference compound], the “Pruritic activity/20 min.” value in data set [2] worked out at 12.4 ± 0.5; in [7] (Table 4, 1 wt.%, 0.1 ml external, mean ± SD, vehicle control 45.7 ± 5.7) it was 36.9 ± 3.0; in [3] (setting [11]), 27.9 ± 2.0; in data set [4] (setting [10]), 17.00 ± 1.26.
As for “zinc 4-methylpicolinate [Compound No. C]”, the “Pruritic activity score (%)” value in [1] worked out at 74.1%.
As for zinc pyrithione [reference compound], the “Pruritic activity/20 min.” value in data set [7] (Table 6, 3.17 wt.%, 0.1 ml, vehicle control 40.1 ± 6.7) is reported as 43.4 ± 6.4.
Consider “zinc 3-propoxypicolinate [Compound No. D]”, for which, in data set [1], the “Pruritic activity score (%)” value turned out to be 41.2%.

Source of the values: patent publication EP0433457B1, “ANTIPRURITIC COMPOSITION” (SHISEIDO COMPANY LIMITED, priority 1989, dated 1990).
